We go through ten compounds from patent publication US20240376094A2, “SELECTIVE BCL-XL PROTAC COMPOUNDS AND METHODS OF USE” (Les Laboratoires Servier, priority 2021, published 2024).

pIC50: −log10 of the molar value.

One assay concerns the target T1, Bcl-xL (Homo sapiens, UniProt Q07817).
T1 construct: Measured levels of Bcl-xL protein of HCT116 cells treated with the tested compounds; host or cells: HCT116
Description: HCT116 Bcl-xL degradation, capillary-based immunoassay (WES). It counts as cell-based. As to conditions: for DC50: HCT116, 24 h, 9-point serial dilution. The method, then:
HCT116 cells were purchased from ATCC and cultivated in RPMI 1640 supplemented with 10% heat inactivated fetal bovine serum, penicillin (100 IU/mi), streptomycin (100 μg/ml) and L-glutamine (2 mM). Cells were cultured at 37° C. in a humidified atmosphere containing 5% CO2. Cells were seeded in 96 microwell plates, 24 h later cells were treated with compounds (2-point 10/100 nM and/or 9-point serial dilution to determine DC50; quadruplicates) during 24 h and harvested in lysis buffer containing 10 mM Hepes (pH 7.5), 150 mM KCl, 5 mM MgCl2, 1 mM EDTA, 0.4% TritonX100, protease and phosphatase inhibitors cocktails (Calbiochem).
Protein concentration in the supernatants was determined using the Pierce BCA protein assay kit (Thermo Fisher Scientific). Lysates (1.5 μg/μL) were analyzed using an automated capillary electrophoresis WES system with 2-40 kDa Wes Separation Module (25 capillary cartridges, Proteinsimple), in accordance with the manufacturer's protocols. Antibodies against the following proteins were used: Bcl-xL (#2764, Cell Signaling Technology, 1:50) and cofilin (#5175, Cell Signaling Technology, 1:1000). Signals were detected with an HRP-conjugated secondary anti-rabbit antibody (#042-206, Proteinsimple) and were quantified using Compass software (version 4.0, Proteinsimple).
Bcl-xL level was calculated by normalizing Bcl-xL values to cofilin and expressed as a percentage of the normalized value of the untreated cells. DC50 were calculated using standard four-parametric curve fitting. DC50 is defined as the compound concentration at which Bcl-xL is reduced to 50% of that measured for the control. Measured levels of Bcl-xL protein of HCT116 cells treated with the tested compounds at 2-point 10 nM/100 nM and/or 9-point for DC50 determination are shown in Table 15.

The next assay deals with MOLT-4 cells. Description: MOLT-4 cell viability, CTG assay. It counts as cell-based. As to conditions: Homo sapiens, MOLT-4, 48 h. An excerpt: The MTT colorimetric assay is based on the mitochondrial reduction of tetrazolium salt by living cells. The viable cell number is proportional to the production of formazan salts, which can be read spectrophotometrically at 540 nm. The CTG luminescent assay (CellTiter GLO, Promega) is based on a reagent which lyses cells and measures total adenosine triphosphate (ATP) content. The viable cell number is proportional to the production of ATP.
MOLT-4 cells were purchased from ATCC and cultivated in RPMI 1640 supplemented with 10% heat inactivated fetal bovine serum, penicillin (100 IU/mi), streptomycin (100 μg/ml) and L-glutamine (2 mM). Cells were cultured at 37° C. in a humidified atmosphere containing 5% […].
For CTG assay, cells were seeded in 384 microwell plates (40 μL per well) and exposed to the compounds for 48 h (11-point serial dilution with 5-fold factor, triplicates). At the end of incubation time, 40 μL of CTG solution were added per well. Wells were mixed thoroughly, and plates were incubated at room temperature for 10 minutes to stabilize luminescent signals prior to reading using a luminescence reader (PHERAStar FSX Reader, BMG Labtech).
IC50, were calculated using standard four-parametric curve fitting. IC50 is defined as the compound concentration at which the MTT or CTG signal is reduced to 50% of that measured for the control. Results shown in Table 14 represent the mean of at least 2 independent experiments.

T1 sequence (Q07817 whole entry): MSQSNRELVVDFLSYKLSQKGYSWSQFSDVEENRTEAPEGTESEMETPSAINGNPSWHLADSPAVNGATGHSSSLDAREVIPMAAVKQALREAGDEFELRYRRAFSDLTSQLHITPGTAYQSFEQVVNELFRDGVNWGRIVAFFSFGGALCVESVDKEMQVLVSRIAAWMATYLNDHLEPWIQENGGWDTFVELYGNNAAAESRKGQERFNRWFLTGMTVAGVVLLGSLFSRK

On to `Cc1ncsc1-c1ccc([C@H](C)NC(=O)[C@@H]2C[C@@H](O)CN2C(=O)[C@@H](NC(=O)CCCCCCCCCCCCCN(C)CCOC23CC4(C)CC(C)(CC(Cn5ncc(-c6ccc(N7CCCc8c7nnc(Nc7nc9ccccc9s7)c8C)nc6C(=O)NC(C)C)c5C)(C4)C2)C3)C(C)(C)C)cc1` [Example 157, 6-[3-(1,3-benzothiazol-2-ylamino)-4-methyl-6,7-dihydro-5H-pyrido[2,3-c]pyridazin-8-yl]-3-[1-[[3-[2-[[14-[[(1S)-1-[(2S,4R)-4-hydroxy-2-[[(1S)-1-[4-(4-methylthiazol-5-yl)phenyl]ethyl]carbamoyl]pyrrolidine-1-carbonyl]-2,2-dimethyl-propyl]amino]-14-oxo-tetradecyl]-methyl-amino]ethoxy]-5,7-dimethyl-1-adamantyl]methyl]-5-methyl-pyrazol-4-yl]-N-isopropyl-pyridine-2-carboxamide], for which the DC50 at Bcl-xL came out at 18.8 nM. Besides, the pIC50 with MOLT-4 cells was 8.12.
On Bcl-xL, `Cc1c(Nc2nc3ccccc3s2)nnc2c1CCCN2c1ccc(-c2cnn(CC34CC5(C)CC(C)(C3)CC(OCCN(C)CCCCCCCCCOc3ccc6c(c3)C(=O)N(C3CCC(=O)NC3=O)C6=O)(C5)C4)c2C)c(C(=O)O)n1` (centres unmarked) [Example 104, 6-[3-(1,3-benzothiazol-2-ylamino)-4-methyl-6,7-dihydro-5H-pyrido[2,3-c]pyridazin-8-yl]-3-[1-[[3-[2-[9-[2-(2,6-dioxo-3-piperidyl)-1,3-dioxo-isoindolin-5-yl]oxynonyl-methyl-amino]ethoxy]-5,7-dimethyl-1-adamantyl]methyl]-5-methyl-pyrazol-4-yl]pyridine-2-carboxylic acid] showed a DC50 of 0.0184 nM. This compound gave a pIC50 in the assay on MOLT-4 cells of 8.76.
In the same order, the values of `Cc1c(Nc2nc3ccccc3s2)nnc2c1CCCN2c1ccc(-c2cnn(CC34CC5(C)CC(C)(C3)CC(OCCN(C)CCCCCCOc3cccc6c3C(=O)N(C3CCC(=O)NC3=O)C6=O)(C5)C4)c2C)c(C(=O)O)n1` (centres unmarked) [Example 141, 6-[3-(1,3-benzothiazol-2-ylamino)-4-methyl-6,7-dihydro-5H-pyrido[2,3-c]pyridazin-8-yl]-3-[1-[[3-[2-[6-[2-(2,6-dioxo-3-piperidyl)-1,3-dioxo-isoindolin-4-yl]oxyhexyl-methyl-amino]ethoxy]-5,7-dimethyl-1-adamantyl]methyl]-5-methyl-pyrazol-4-yl]pyridine-2-carboxylic acid] are > 316 nM and 7.98.
On the same counts, the results for `Cc1c(Nc2nc3ccccc3s2)nnc2c1CCCN2c1ccc(-c2cnn(CC34CC5(C)CC(C)(C3)CC(OCCN(C)CCCCCCCCOc3cccc6c3C(=O)N(C3CCC(=O)NC3=O)C6=O)(C5)C4)c2C)c(C(=O)O)n1` (centres unmarked) [Example 143, 6-[3-(1,3-benzothiazol-2-ylamino)-4-methyl-6,7-dihydro-5H-pyrido[2,3-c]pyridazin-8-yl]-3-[1-[[3-[2-[8-[2-(2,6-dioxo-3-piperidyl)-1,3-dioxo-isoindolin-4-yl]oxyoctyl-methyl-amino]ethoxy]-5,7-dimethyl-1-adamantyl]methyl]-5-methyl-pyrazol-4-yl]pyridine-2-carboxylic acid] are > 316 nM and 8.28.
With `Cc1c(Nc2nc3ccccc3s2)nnc2c1CCCN2c1ccc(-c2cnn(CC34CC5(C)CC(C)(C3)CC(OCCN(C)CCCCCCCCCC(=O)N3CCC(c6ccc7c(c6)CN(C6CCC(=O)NC6=O)C7=O)CC3)(C5)C4)c2C)c(C(=O)O)n1` (centres unmarked) [Example 70, 6-[3-(1,3-benzothiazol-2-ylamino)-4-methyl-6,7-dihydro-5H-pyrido[2,3-c]pyridazin-8-yl]-3-[1-[[3-[2-[[10-[4-[2-(2,6-dioxo-3-piperidyl)-1-oxo-isoindolin-5-yl]-1-piperidyl]-10-oxo-decyl]-methyl-amino]ethoxy]-5,7-dimethyl-1-adamantyl]methyl]-5-methyl-pyrazol-4-yl]pyridine-2-carboxylic acid], the remaining activity at 0.01 µM on Bcl-xL (HCT-116, HCT116, 10 nM, 24 h, % of untreated cells) worked out at 101%. Moreover, the remaining activity at 0.1 µM at Bcl-xL (HCT-116, HCT116, 100 nM, 24 h, % of untreated cells) was determined as 90%. For the same compound, the negative logarithm of the IC50 (pIC50) in the assay on MOLT-4 cells was 8.13.
In turn, `Cc1c(Nc2nc3ccccc3s2)nnc2c1CCCN2c1ccc(-c2cnn(CC34CC5(C)CC(C)(C3)CC(OCCN(C)CCCCCCCCCCC(=O)N3CCC(c6ccc7c(c6)CN(C6CCC(=O)NC6=O)C7=O)CC3)(C5)C4)c2C)c(C(=O)O)n1` (centres unmarked) [Example 75, 6-[3-(1,3-benzothiazol-2-ylamino)-4-methyl-6,7-dihydro-5H-pyrido[2,3-c]pyridazin-8-yl]-3-[1-[[3-[2-[[11-[4-[2-(2,6-dioxo-3-piperidyl)-1-oxo-isoindolin-5-yl]-1-piperidyl]-11-oxo-undecyl]-methyl-amino]ethoxy]-5,7-dimethyl-1-adamantyl]methyl]-5-methyl-pyrazol-4-yl]pyridine-2-carboxylic acid] had a negative logarithm of the IC50 (pIC50) in the assay on MOLT-4 cells of 8.23.
On the same count and under the same terms, with `CN[C@@H](C)C(=O)N[C@H](C(=O)N1CCC[C@H]1c1nc(C(=O)c2cccc(OCCCCCCCCCCCCCCN(C)CCOC34CC5(C)CC(C)(CC(Cn6ncc(-c7ccc(N8CCCc9c8nnc(Nc8nc%10ccccc%10s8)c9C)nc7C(=O)O)c6C)(C5)C3)C4)c2)cs1)C1CCCCC1` [Example 100, 6-[3-(1,3-benzothiazol-2-ylamino)-4-methyl-6,7-dihydro-5H-pyrido[2,3-c]pyridazin-8-yl]-3-[1-[[3-[2-[14-[3-[2-[(2S)-1-[(2S)-2-cyclohexyl-2-[[(2S)-2-(methylamino)propanoyl]amino]acetyl]pyrrolidin-2-yl]thiazole-4-carbonyl]phenoxy]tetradecyl-methyl-amino]ethoxy]-5,7-dimethyl-1-adamantyl]methyl]-5-methyl-pyrazol-4-yl]pyridine-2-carboxylic acid] the figure was 8.08.
Regarding `Cc1c(Nc2nc3ccccc3s2)nnc2c1CCCN2c1ccc(-c2cnn(CC34CC5(C)CC(C)(C3)CC(OCCN(C)CCCCCCCC(=O)N3CCC(c6ccc7c(c6)CN(C6CCC(=O)NC6=O)C7=O)CC3)(C5)C4)c2C)c(C(=O)O)n1` (centres unmarked) [Example 68, 6-[3-(1,3-benzothiazol-2-ylamino)-4-methyl-6,7-dihydro-5H-pyrido[2,3-c]pyridazin-8-yl]-3-[1-[[3-[2-[[8-[4-[2-(2,6-dioxo-3-piperidyl)-1-oxo-isoindolin-5-yl]-1-piperidyl]-8-oxo-octyl]-methyl-amino]ethoxy]-5,7-dimethyl-1-adamantyl]methyl]-5-methyl-pyrazol-4-yl]pyridine-2-carboxylic acid], the DC50 on Bcl-xL was > 316 nM. The negative logarithm of the IC50 (pIC50) with MOLT-4 cells was 7.82.
As to `Cc1c(Nc2nc3ccccc3s2)nnc2c1CCCN2c1ccc(-c2cnn(CC34CC5(C)CC(C)(C3)CC(OCCN(C)CCCCCCCCCCCCCCCC(=O)N3CCC(c6ccc7c(c6)CN(C6CCC(=O)NC6=O)C7=O)CC3)(C5)C4)c2C)c(C(=O)O)n1` (centres unmarked) [Example 74, 6-[3-(1,3-benzothiazol-2-ylamino)-4-methyl-6,7-dihydro-5H-pyrido[2,3-c]pyridazin-8-yl]-3-[1-[[3-[2-[[16-[4-[2-(2,6-dioxo-3-piperidyl)-1-oxo-isoindolin-5-yl]-1-piperidyl]-16-oxo-hexadecyl]-methyl-amino]ethoxy]-5,7-dimethyl-1-adamantyl]methyl]-5-methyl-pyrazol-4-yl]pyridine-2-carboxylic acid], the DC50 on Bcl-xL amounted to 0.133 nM.
In the assay with MOLT-4 cells, `CN[C@@H](C)C(=O)N[C@H](C(=O)N1CCC[C@H]1c1nc(C(=O)c2cccc(OCCCCN(C)CCOC34CC5(C)CC(C)(CC(Cn6ncc(-c7ccc(N8CCCc9c8nnc(Nc8nc%10ccccc%10s8)c9C)nc7C(=O)O)c6C)(C5)C3)C4)c2)cs1)C1CCCCC1` [Example 99, 6-[3-(1,3-benzothiazol-2-ylamino)-4-methyl-6,7-dihydro-5H-pyrido[2,3-c]pyridazin-8-yl]-3-[1-[[3-[2-[4-[3-[2-[(2S)-1-[(2S)-2-cyclohexyl-2-[[(2S)-2-(methylamino)propanoyl]amino]acetyl]pyrrolidin-2-yl]thiazole-4-carbonyl]phenoxy]butyl-methyl-amino]ethoxy]-5,7-dimethyl-1-adamantyl]methyl]-5-methyl-pyrazol-4-yl]pyridine-2-carboxylic acid] gave a pIC50 of 8.34.

For orientation: DC50 means the midpoint of the concentration-degradation curve. Read a high DC50 as degradation only at high concentration. A word on the pIC50: it is the IC50 on a negative log10 scale, so that one unit is a factor of ten. In general, remaining activity refers to the signal under treatment as a percentage of the control signal.
